For orientation: T/C means the result in the treated group divided by that in the control group, in per cent.

Drawing on ChEMBL document CHEMBL1155127, “Paw paw and cancer: annonaceous acetogenins from discovery to commercial products” (J Nat Prod, 2008), this text covers T/C, inhibition in vivo and Activity for ten compounds.

The subject of series [1] is L1210. Nature of the series: Antitumor activity against mouse L1210 cell xenografted mouse at 200 ug/kg. In kind it is functional.
Series [2] has as its system P388. As to the kind of experiment: Antitumor activity against mouse P388 cells at 25 ug/kg by in vivo 3PS assay. It is filed as functional.
In series [3] the test system is P388. Nature of the series: Antitumor activity against mouse P388 cells xenografted mouse at 0.025 mg/kg/day for 10 days by 3PS assay. It is filed as functional.
For series [4], the system named is A2780. As to the kind of experiment: Antitumor activity against human A2780 cell xenografted athymic mouse at 1000 ug/kg/day. It is filed as functional. As to conditions: read-out: TGI.
In series [5] the test system is A2780. Nature of the series: Antitumor activity against human A2780 cell xenografted athymic mouse at 125 ug/kg/day. In kind it is functional. As to conditions: read-out: TGI.
Series [6] relates to L1210. As to the kind of experiment: Antitumor activity against mouse L1210 cell xenografted mouse at 400 ug/kg. It is filed as functional.
A further series has as its system Mus musculus. Nature of the series: Toxicity in mouse P388 cells xenografted mouse at 0.22 mg/kg/day for 10 days. As to conditions: in vivo, 240 h.
The subject of series [7] is P388. Nature of the series: Antitumor activity against mouse P388 cells at 250 ug/kg by in vivo 3PS assay. It is filed as functional.
Series [8] relates to P388. As to the kind of experiment: Antitumor activity against mouse P388 cells xenografted mouse at 0.95 mg/kg/day for 10 days by 3PS assay. In kind it is functional.
Series [9] deals with P388. Nature of the series: Antitumor activity against mouse P388 cells in at 1.4 mg/kg by in vivo 3PS assay. It is filed as functional.
Series [10] concerns L1210. As to the kind of experiment: Antitumor activity against mouse L1210 cell xenografted mouse at 15000 ug/kg. It is filed as functional.
A further series has as its system KB. Nature of the series: Antitumor activity against human KB cell xenografted mouse assessed as inhibition of tumor growth at 900 ug/kg administered every 2 days for 6 days. In kind it is functional. For orientation: In xenograft studies the graft and the host belong to different species.
A short description of series [11]: Antitumor activity against multidrug resistant human KBv200 cell xenografted mouse assessed as inhibition of tumor growth at 900 ug/kg administered every 2 days for 6 days. It is filed as functional.

On to `CCCCCCCCCCC(O)C1CCC(C2CCC(C(O)CCCCCCCC[C@H](O)CC3=C[C@@H](C)OC3=O)O2)O1` (some centres undefined) [ASIMICIN], for which the values for the T/C with L1210 [1], in the series with P388 [2] and in the series on P388 [3] were 131%, 124% and 124%, respectively.

On to `CCCCCCCCCC[C@H](O)[C@H]1CC[C@H]([C@H](O)CC[C@H](O)[C@@H]2CC[C@@H](CCCCCCC[C@@H](O)CC3=C[C@H](C)OC3=O)O2)O1` [BULLATALICIN], for which the inhibition in vivo at 1 mg/kg/day in the series with A2780 [4] was 75%.

Take `CCCCCCCCCC[C@H](O)[C@H]1CC[C@H]([C@H]2CC[C@H]([C@H](O)CCCCCCCCCC[C@@H]3CC(CC(C)=O)C(=O)O3)O2)O1` (some centres undefined) [BULLATACINONE]: the inhibition in vivo at 0.125 mg/kg/day in the series with A2780 [5] turned out to be 52%. Besides, in the series with L1210 [6], the T/C is listed as 144%.

On to `CCCCCCCCCC[C@@H](O)[C@H]1CC[C@H]([C@H]2CC[C@H]([C@H](O)CCCCCCCCCC[C@@H](O)CC3=C[C@H](C)OC3=O)O2)O1` [ASIMICIN], for which the Activity result with Mus musculus is recorded as “Toxic”. Take `CCCCCCCCCCC(O)C1CCC(C2CCC(C(O)CCCCCCCCCCC(O)CC3=CC(C)OC3=O)O2)O1` (centres undefined) [ROLLINIASTATIN]: the T/C in the series on P388 [7] came to 128%. Take `CCCCCCCCCCCC[C@@H](O)[C@H]1CC[C@H]([C@H](O)CCCC[C@H](O)CCCCC[C@@H](O)CC2=CC(C)OC2=O)O1` (some centres undefined) [ANNONACIN]: the T/C with P388 [8] was 124%. Take `CCCCCCCCCCC(O)C1CCC(C2CCC(C(O)C(=O)CCCCCCCCCCCC3CC(C)OC3=O)O2)O1` (centres undefined) [ROLLINONE]: the T/C in the series on P388 [9] came to 147%.

With `CCCCCCCCCC[C@H](OC(C)=O)[C@H]1CC[C@H]([C@H]2CC[C@H]([C@H](O)CCCCCCCCCCCCC3=C[C@H](C)OC3=O)O2)O1` [UVARICIN], in the series on P388 [9], the T/C came out at 157%. In turn, `CC(=O)O[C@H]1C(=O)[C@@]2(C)[C@H]([C@H](OC(=O)c3ccccc3)[C@]3(O)C[C@H](OC(=O)[C@H](O)[C@@H](NC(=O)c4ccccc4)c4ccccc4)C(C)=C1C3(C)C)[C@]1(OC(C)=O)CO[C@@H]1C[C@@H]2O` [PACLITAXEL] came in with a T/C with L1210 [10] of 139%. With `CCCCC[C@@H](O)[C@H](O)CCC[C@@H](O)[C@H]1CC[C@H]([C@H]2CC[C@H]([C@H](O)CCCCCCCCCCCCC3=C[C@H](C)OC3=O)O2)O1`, the inhibition in vivo at 0.9 mg/kg in the series on KB is 52.3%; in [11] it was 56.5%.
